# Molecular target: T1, FOYE-1 (Ferrovum sp. JA12, UniProt A0A0R0LNE8)
# T1 sequence (A0A0R0LNE8 1-354): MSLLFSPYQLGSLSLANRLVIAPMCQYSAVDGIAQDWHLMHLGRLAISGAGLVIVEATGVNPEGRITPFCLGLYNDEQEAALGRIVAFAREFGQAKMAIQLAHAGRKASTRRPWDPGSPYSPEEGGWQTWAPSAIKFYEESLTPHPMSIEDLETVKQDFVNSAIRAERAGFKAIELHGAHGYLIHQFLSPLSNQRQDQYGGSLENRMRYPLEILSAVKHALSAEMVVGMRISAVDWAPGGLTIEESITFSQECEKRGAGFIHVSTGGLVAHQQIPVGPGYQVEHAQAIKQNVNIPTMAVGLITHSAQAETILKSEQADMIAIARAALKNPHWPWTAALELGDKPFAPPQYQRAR
# Assay: FMN quantification at […] nm in purified protein
# Format: binding
# Conditions: co-purified flavin cofactor; partly saturated holoprotein
smiles,measurement,value
Cc1cc2nc3c(=O)[nH]c(=O)nc-3n(C[C@H](O)[C@H](O)[C@H](O)COP(=O)(O)O)c2cc1C [FMN],FMN saturation,found to be only partially saturated with the flavin mononucleotide (FMN) cofactor
